From a melting point compilation (Tetko et al.; mined from patent text by program, amines drawn as free bases though some values may be those of a salt) come the findings set out here.

In turn, `CCCc1c(OCCCOc2cc([N+](=O)[O-])c(Cl)cc2C)ccc(C(C)=O)c1O` returned a melting point of 113 to 115 °C. `NC(=O)Cc1ccc2c(c1)sc1ccc(Cl)cc12` gave a melting point of 92 to 99 °C. The figure for `CC1(C)CN(C2CC3(C)C(CCC4C3CCC3(C)C(C(=O)CO)CCC43)CC2O)CCO1` (stereo unspecified) is 184 to 186 °C.

Regarding `CC(C)Oc1ccc(F)c(-c2nn(C(C)c3oc4ccccc4c(=O)c3-c3cccc(F)c3)c3ncnc(N)c23)c1` (stereo unspecified), the melting point lay within 198 to 201 °C. `OC1CSC(Oc2cccc(-c3ccc(F)cn3)c2)C(O)C1O` (stereo unspecified) yielded a melting point of 168 to 201 °C. Molecule `COC(=O)C(C)(C)CCCOc1cc(C)c([N+](=O)[O-])cc1C` had a melting point of 73 to 75 °C. Under `N#CC1C(=O)Nc2cc(Cl)ccc2C1=O` (stereo unspecified) stands 314 to 316 °C; under `CCNC(=O)[C@H]1N(C(=O)[C@@H](O)[C@H](Cc2ccccc2)NC(=O)c2cc(C)cc(O)c2C)CC(F)(F)C1(C)C`, 208 to 214 °C; under `CC(C)[C@H]1CC[C@H](Nc2ncc(Cc3ccc(O)nc3)c3ncccc23)CC1`, 232 to 235 °C. The figure for `CCCCc1oc2ccccc2c1Cc1ccc(OS(=O)(=O)c2ccc(C(=O)O)c(O)c2)cc1` is 135 to 138 °C; for `O=C(NO)c1ccc(OC(=O)C2(c3ccc(OC(=O)c4ccccc4)cc3)CCCCC2)cc1` it is 114 to 115 °C; for `CN(C)C1(Cc2ccccc2)CCC(O)(c2cc3ccccc3n2C)CC1` (stereo unspecified) it is 105 to 107 °C. As to `COCCOc1ccc(N)c([N+](=O)[O-])c1`, the melting point fell in the range of 89 to 90 °C.

Molecule `Cc1nc(N(C)C)sc1C(=O)c1ccc(N)c([N+](=O)[O-])c1` gave a melting point of 225 to 228 °C. `CCc1nc2c(N)nc3cccnc3c2n1CC1(O)CCOCC1`: the melting point was > 250 °C. Under `CCc1ccccc1C(N)=NO` stands 54 to 55 °C. In the case of `CCCc1c(C(=O)NCc2ccc3cc(OCC(=O)OC)ccc3c2)cnn1-c1ccc(Cl)cc1`, the melting point was in the range of 139 to 140 °C. The figure for `CCCOc1c2cc(F)c(F)cc2nc2c1c(C)nn2-c1ccccn1` is 162 to 163 °C. Under `CC1=NN(CCN2CCOCC2)S(=O)(=O)c2sc(S(N)(=O)=O)cc21` stands 160 to 162 °C; under `CC(C)C1(C)CC(O)C2(C)CCC3c4ccc(O)cc4CCC3C12` (stereo unspecified), 201 to 205 °C. `COC(=O)c1sc(C)c2nc(OC)n(Cc3ccc(-c4ccccc4C#N)cc3)c12`: the melting point fell in the range of 181 to 182 °C. Under `CCOC(=O)C1=C(C)NC(N)=C(C(=O)OCC)C1c1cccc(Cl)c1` (stereo unspecified) stands 157 to 159 °C; under `CNC(=O)CNC(=O)c1ccc(C)c(-n2c(C)cc(OCc3ccccc3CNC(=O)Nc3cc(C(C)(C)C)nn3-c3ccc(O)c(Cl)c3)c(Cl)c2=O)c1`, 209 to 211 °C; under `CCn1ncc2c(NCC3CCCCC3)c3cc(OCCN4CCOCC4)ccc3nc21`, 176 to 178 °C. The figure for `CC(C)n1c(/C=C/C2CC(O)CC(=O)O2)c(-c2ccc(F)cc2)c2ccccc2c1=O` (stereo unspecified) is 151 to 154 °C. The figure for `CCn1cc(C(=O)O)c(=O)c2cc(F)c(N3CCN(C)CC3)nc21` is 228 to 230 °C; for `COC(=O)c1c(NC(=O)C(C)(C)C)c(Cl)cc(OC)c1OC` it is 100 to 102 °C; for `O=[N+]([O-])c1cc(C(F)(F)F)ccc1-c1ccno1` it is 62 to 63 °C. `O=C(O)c1[nH]c(=O)n2c1CN=C(c1ccccc1Cl)c1cc(Cl)ccc1-2` yielded a melting point of 236 to 238 °C. Under `O=C(O)CCc1nc(-c2ccccc2)nc2ccccc12` stands 159 °C; under `CS(=O)(=O)Nc1cc(O)ccc1Oc1ccccc1`, 138 to 140 °C. As for `O=C1OCCC1=Cc1ccccc1OCC(O)CN1CCC(c2ccc3ccccc3c2)CC1` (stereo unspecified), the melting point fell in the range of 127 to 128 °C. The figure for `CCCc1c(OCCCCCCCC(=O)NCCCCc2cccnc2)ccc(C(C)=O)c1O` is 48 to 51 °C.

The molecule `CCOc1ncc(C(C)=O)cc1C(=O)Nc1c(C(N)=O)nn(C2CCN(C(=O)OC(C)(C)C)CC2)c1CC` yielded a melting point of 197 to 202 °C. `COc1cc(OC)nc(Oc2cccc(O)c2C=O)n1` registered a melting point of 82 °C. `CCOC(=O)c1c[nH]c(C2CCN(CCC(CN(C)C(=O)c3ccccc3)c3ccc(Cl)c(Cl)c3)CC2)n1` (stereo unspecified) yielded a melting point of 96 to 102 °C.

`CCc1[nH]n(C2CCCC2)c2nc(-c3cc(C)nc(-n4ccnc4)c3)nc(=O)c1-2` registered a melting point of 277 to 278 °C. `O=C(O)/C(=N/O)c1ccc(OCCOc2ccc3ccccc3c2)s1` returned a melting point of 138 to 140 °C. As to `COCC(C(=O)O)N(CCN(CC(=O)O)C(COC)C(=O)O)CC(=O)O` (stereo unspecified), the melting point turned out to be 215 °C. Under `CCCc1c(CCC(=O)O)cnn1Cc1ccc(OCc2nc(-c3ccccc3)oc2C)cc1` stands 158 to 159 °C. Under `COc1ccc2ccc(N3C(=O)c4ccccc4C3OCC(=O)CC(C)C)nc2n1` (stereo unspecified) stands 120 °C; under `O=C(Nc1ccc(Cl)cc1)OCCOc1ccc(Oc2ccccc2)cc1Cl`, 155 to 156 °C. Molecule `Cc1ccc(C(=O)OC2CCN(Cc3cccc(N)c3)CC2)cc1` showed a melting point of 100 to 102 °C.

`C=CS(=O)CCNC(=O)CCS(=O)(=O)CCCl` (stereo unspecified) yielded a melting point of 108 to 109 °C.

`Cn1c(C(=O)N=[N+]=[N-])c(-c2ccccc2)c2cc([N+](=O)[O-])ccc21` showed a melting point of 262 to 264 °C. `O=C(CSc1nc2ccccc2s1)NC1(C(=O)O)Cc2ccc(-c3ccc(Cl)cc3)cc2C1` (stereo unspecified) yielded a melting point of 205 to 207 °C. Under `CCc1n[nH]c(-c2ccccc2)c1NC(=O)c1ccccc1` stands 215 to 216 °C. Turning to `Nc1nc2c(s1)CC(CN1CC=C(c3ccccc3)CC1)CC2` (stereo unspecified), the melting point lay within 187 to 190 °C.

Molecule `CCOC(=O)[C@H](CCSC)NC(=O)C1(Br)SC=C(Br)C1Br` (stereo partly specified) displayed a melting point of 80 to 82 °C.

In the case of `CC1(C)CCn2c(nc(-c3ccncn3)cc2=O)N1`, the melting point was 265 to 267 °C. `COCC1CN(c2ccc(C3CCCCC3)c(N)c2)C(=O)O1` (racemic) gave a melting point of 130 to 132 °C.

`C(=C(/c1ccccc1)n1c2ccccc2c2ccccc21)/c1ccccc1` displayed a melting point of 160 to 162 °C. Consider `CCN1CCN(Cc2ccc(NC(=O)Nc3ccc(Oc4cc(Cl)ncn4)cc3)cc2)CC1`, for which the melting point is 203 to 204 °C.

Molecule `CC(C)(C)C1(O)CCN(CC2c3ccccc3CCc3ccccc32)CC1` yielded a melting point of 96 to 98.5 °C. Under `CONS(=O)(=O)c1cccc(C)c1` stands 90 to 92 °C; under `CCCOc1ccc(/C=C/C(=O)OC(C)(C)C)cc1-c1nc2c(c(C)nn2CCC)c(=O)[nH]1`, 181 to 182 °C. On to `COc1cccc(-c2nc3n(n2)CCc2ccccc2-3)c1`, for which the melting point was in the range of 94 to 96 °C. The figure for `COCOc1c(-c2ccccc2)sc2cnccc12` is 55 to 56 °C; for `O=C(CCCCC1(C(=O)O)CCCC1)CCCCC1(C(=O)O)CCCC1` it is 99 to 103 °C. Turning to `CCC1(O)CC(=O)OCc2c1cc1n(c2=O)Cc2c-1nc1ccccc1c2-c1ccc(C)cc1` (stereo unspecified), the melting point was > 280 °C. In the case of `Fc1cc(CC2(Cc3ccnc(F)c3)c3ccccc3-c3nccnc32)ccn1`, the melting point lay in the range of 119 to 120 °C. The molecule `CC1CCC(n2ncc(-c3ccc(S(C)(=O)=O)cc3)c(-c3ccc(F)cc3)c2=O)C1` (stereo unspecified) yielded a melting point of 169 to 171 °C. The figure for `ClC1=Nc2cc(Cl)ccc2Sc2cscc21` is 234 to 235 °C. Under `OC(Cc1ccccc1Cl)(Cn1ccnc1S)C1(Cl)CC1` (stereo unspecified) stands 124 to 126 °C. The figure for `Cc1ccc(-n2nc(C(F)(F)F)cc2-c2ccc(S(C)(=O)=O)cc2)cc1F` is 158 to 160 °C. As for `CCc1c(C)c(=O)oc2cc(-c3nnc(C)s3)cc(OC)c12`, the melting point lay within 135 to 138 °C. Under `CC(C)C1(C)N=C(c2nc(O)ccc2C(=O)O)NC1=O` (stereo unspecified) stands 201 to 203 °C; under `CCSc1cc(O)c(C#N)s1`, 105 °C.

The molecule `O=C1OC(CCCCl)CN1c1ccccc1` (stereo unspecified) showed a melting point of 76 to 79 °C. Under `COc1ccc(C)cc1NC(=O)Nc1ccc2c(c1)C=CN(C(=O)Nc1c(C)cccc1Cl)C2` stands 216 to 218 °C; under `COc1ccc(CC(C(O)CCC(C#N)(c2ccc(OC)c(OC)c2)C(C)C)[N+](=O)[O-])cc1OC` (stereo unspecified), 171 to 173 °C. Under `Nc1nc2ccccc2c2c1nc(O)n2CC1CCOCC1` stands > 250 °C; under `COC(=O)N(O)Cc1c(C)n(C(=O)c2ccc(Cl)cc2)c2ccc(OC)cc12`, 113 to 114 °C. Under `CS(=O)(=O)Nc1cc2occc(=O)c2cc1Oc1ccccc1C(=O)O` stands 243 to 246 °C; under `O=CC1(c2ccc(Cl)cc2)CC1`, 38 to 41 °C; under `CCN1c2ccccc2CC1CNC(=N)N` (stereo unspecified), 199 °C. Molecule `COc1ccc(N2CCN(c3c(C)c(C)c4c(c3C)CC(C)(COC=O)O4)CC2)cc1` (stereo unspecified) came in with a melting point of 120 to 124 °C. `COc1ccc(-c2ccc(C(=O)Nc3ccc4nc(CN5CCCCC5)ccc4c3)cc2)cc1` displayed a melting point of 192 to 194 °C. Under `Nc1c(C(=O)Nc2nnn[nH]2)oc2ccccc12` stands 185 °C; under `O=C(O)CCCOc1cccc(CN2CCCCC2)c1`, 73 to 77 °C; under `O=C(OC1c2ccccc2C(=O)N1c1ccc2ccc(Cl)nc2n1)N1CCN(C(=O)C2CCCCC2)CC1` (stereo unspecified), 240 °C. As to `CCCCO/N=C(\C(=O)On1nnc2ccccc21)c1csc(NC(c2ccccc2)(c2ccccc2)c2ccccc2)n1`, the melting point fell in the range of 100 to 102 °C. As to `O=C(NCCNCc1cc2cc(O)ccc2o1)C12CC3CC(CC(C3)C1)C2`, the melting point was in the range of 140 to 143 °C. Under `OC(CCc1cccnc1)CSc1ccc2ccccc2c1` (stereo unspecified) stands 90 to 92 °C; under `CC(C)(c1ccc(Oc2cccc(N)c2)cc1)c1ccc(C(C)(C)c2ccc(Oc3cccc(N)c3)cc2)cc1`, 138 to 140 °C.

`COCCc1c[nH]c(-c2ccc(OCc3ccccc3)cc2)n1` registered a melting point of 154 to 156 °C.

As usually defined, the melting point is the temperature, or range, at which the solid turns liquid.
